# Assays:
# [1] = Endotoxin binding: competitive displacement of BODIPY TR-Cadaverine from LTA; set-up: species or system Staphylococcus aureus; settings: 5 μM peptide; for LTA binding (BC displacement), in words: 10 μM BC, 10 μg/mL LTA, 10 mM Na-PO4; for higher degree of LTA binding than parent peptide: vs ATRA-1 / ATRA1-R3W2
# Protocol: FIGS. 2A-2B are graphs showing endotoxin binding. The figures depict the competitive displacement of BC from LPS/LTA by the peptides. 5 μM of each peptide was incubated with 10 μM BC and 10 μg/mL LPS from E. coli (0111:B4) or LTA from S. aureus. Fluorescence intensity was measured at excitation=580 nm and emission=620 nm. 10 μM BC without endotoxin was used as 100% displacement while 10 μM BC with 10 μg/mL LPS/LTA without any peptide as 0% displacement and the % displacement of BC by each peptide was calculated accordingly. […] had been used as a positive control. The horizontal dotted line coincides with the % displacement of BC by ATRA1 on the y-axis.
# FIGS. 6A-6B are graphs showing endotoxin (LPS (FIG. 6A) and LTA (FIG. 6B)) binding. Competitive displacement of BC from LPS/LTA. In each case, 5 μM peptide was incubated with 10 μM BC and 10 μg/mL LPS from E. coli (0111:B4) or LTA from S. aureus. Fluorescence intensity was measured using excitation=580 nm and emission=620 nm. As a positive control 10 μM BC without endotoxin was used as a reference for 100% displacement while 10 μM BC with 10 μg/mL LPS/LTA without any peptide as a negative control and a reference for 0% displacement. These controls were used to calculate % BC displacement for each peptide.
# Endotoxin Binding. The binding of endotoxin (LPS/LTA) was evaluated using a fluorogenic conjugateBODIPY TR-Cadaverine (BC). BC binds endotoxin loses its fluorescence. The peptide competitively displaces BC from endotoxin and the fluorescence is reestablished. Competitive inhibition of endotoxin-BC binding was utilized due to presence of peptides already in complexion with endotoxin. 25 μL of 20 μM of peptides in 10 mM Na—PO4 buffer were incubated with 25 μL of LPS (40 μg/mL) or LTA (40 μg/mL) for 15 min and then added with 50 μL of BC (20 uM). Peptides bind to LPS or LTA and competitively prevents BC bind to the endotoxin. BC loses its fluorescence on binding to endotoxin. The fluorescence intensity of the unbound BC was measured at excitation=580 nm and emission=620 nm.
# BC contains two functional moieties: BODIPY (boron-dipyrromethene) and cadaverine connected via a carboxamide. BODIPY is the fluorophore of BC and fluoresces in the free state in solution but loses fluorescence when bound to LPS/LTA. The competitive displacement of BC from LPS/LTA by AMPs and thus regeneration of the fluorescence has frequently been used to estimate the binding strength of AMPs with LPS/LTA. In the present studies, 5 μM of each peptide was used to displace BC from LPS/LTA. […] Such observation contradicts the initial assumption that substitution of Lys with arginine would result in increased efficiency of LPS binding. However, with sequential substitutions of Lys with arginine, starting with ATRA1-AR, peptide variants show increased LPS binding with each additional arginine substitution. In terms of LPS binding: ATRA1-AR<ATRA1-AR2<ATRA1-AR3. In ATRA1-R3, the lysine residues at 9th, 5th and 1st positions of ATRA1 were substituted with arginine. In ATRA1-R6 all of the lysine residues were replaced with arginine.
# B. cereus ATCC 11778 = experiment: Antimicrobial efficacy (resazurin virtual colony count); type: cell-based, Bacillus cereus; settings: DPBS
# Protocol: Antimicrobial Studies. The phosphate buffers used for antimicrobial assays were supplemented with non-nitrogenous energy source, 0.1% (w/v) glucose. To conduct antimicrobial assays, bacterial strains were first suspended in respective buffers. E. coli (ATCC 25922) and B. cereus (ATCC 11778) were grown in MHB II up to OD600 nm˜1 and stored as frozen stock in 20% glycerol at −80° C. Occasionally they were thawed and enumerated by serial dilution and spreading on MHB II agar plates. The concentrations of the frozen stocks of E. coli and B. cereus strains were 1.0-1.1*10^8 CFU/mL with OD600 nm˜0.8. In case of other bacterial strains, they were grown on the days of experiment up to OD600 nm˜1-1.5 and then adjusted to OD600 nm˜0.8. The growth media of the drug-resistant bacterial strains were supplemented with few of the respective antibiotics against which they are resistant. […]
# Antimicrobial assays in different phosphate buffers and serum were conducted by adapting, with necessary modifications a fast high-throughput method based on Virtual Colony Count technique and later modified by incorporating the use of resazurin. At first serial dilution of a microbial strain in respective buffer was poured in the wells of 96 well polypropylene microplate and was then added with same volume of 2× MHB II supplemented with 80 μg/mL resazurin and incubated at 35° C. in a Gemini EM Microplate Reader (Molecular Devices) overnight with intermittent shaking. As the microbe grows it reduces non-fluorescent resazurin to fluorescent resorufin and the fluorescent intensity of each well were measured (excitation=570 nm, emission=590 nm) each 5 min for 15 hours. The time (t, min) to reach a certain fluorescence (RFU=20000 with respect to the starting fluorescence) was correlated with the initial bacterial concentration (in CFU/mL) in the particular well to obtain a calibration plot of the form: Log([Bacteria],CFU/mL)=b+m*t Equation 4: […]
Sequence,"LTA binding (BC displacement), in words [1]","antimicrobial efficacy, in words (B. cereus ATCC 11778)",higher degree of LTA binding than parent peptide [1] [fold]
KRAKKFFKKLK (SEQ ID NO: 4) [ATRA1-A],significantly lower LTA binding than ATRA1,not effective,–
"KRFKKFFKKLK (SEQ ID NO: 2) [ATRA1, first 11 residues of NA-CATH]",–,somewhat effective,–
"KRFKKFFKKLKGGVIGVTFPF (SEQ ID NO: 38) [ATRA1-HYD, ATRA1 with hydrophobic tail of NA-CATH joined at the C-terminus by a short -GG- segment]",–,–,~2
"KRFKKFFKKLKNSVKKRAKKFFKKPK (SEQ ID NO: 53) [NA-CATH26, first 26 residues of NA-CATH]",bound LTA to a significantly lower degree than NA-CATH,–,–
RRWKRFFKRWK (SEQ ID NO: 15) [ATRA1-R3W2],far effective than ATRA1 in binding LTA,–,–
"RRWKRFFKRWKGGVIGVTFPF (SEQ ID NO: 50) [ATRA1-R3W2-HYD, ATRA1-R3W2 with hydrophobic tail of NA-CATH joined by -GG-]",–,–,~2
